In patent US20070154540A1 (KMSI CO., LTD., priority 2003, published 2007):

Key:
cancer cells = details: background statement; cited from earlier work
[1] = tested on: osteoarthritis-induced New Zealand white rabbits; assay: Total protein levels in joint synovial fluids (Bradford); format: in vivo
From the text: (§1) To prepare an osteoarthritis animal model, New Zealand white rabbits underwent anterior cruciate ligament transection (ACLT) in joints of their two hind legs. After three days, the rabbits were forced to sustain movement for four weeks in a space of 5×5 m^3 to induce substantial osteoarthritis. […] The following Examples 3 to 10 were all performed using joints of the osteoarthritis-induced New Zealand white rabbits prepared as in this Example 2.
As cartilage is destroyed with the progress of osteoarthritis, proteins contained therein are released into synovial fluids. With this respect, total protein levels were measured in synovial fluids. Using the joint synovial fluids prepared in Example 3, total protein levels in synovial fluids were measured using a Bradford method. 50 μl of a synovial fluid was mixed with 200 μl of a protein analysis reagent (500-0006, Bio-Rad) and allowed to stand at room temperature for 5 min, and absorbance was then measured at 595 nm.

[2] = tested on: osteoarthritis-induced New Zealand white rabbits; assay: Total joint synovial fluid volume (Arsenazo III) in osteoarthritis-induced rabbits; format: in vivo
From the text: as §1
Typically, synovial fluid volume increases with inflammation as osteoarthritis progresses. […] The supernatants were used in this test.
Since synovial fluid volume has been reported to change according to the progress of osteoarthritis, total synovial fluid volume was measured to investigate changes in synovial fluids according to osteoarthritis induction and drug treatment. Synovial fluid volume was determined by measuring Ca^2+ concentrations in synovial fluids using an Arsenazo III complexion method (Michaylova V. et al., Anal. Chim. Acta, 53:194 (1971)). Total synovial fluid volume was calculated using a Donnan equilibrium equation. 0.01 ml of a synovial fluid was mixed with 1 ml of an Arsenazo III reagent (588-3, Sigma) and allowed to stand at room temperature for 5 min. Absorbance was measured at 600 nm using a spectrophotometer (DU650, Beckman).

[3] = tested on: osteoarthritis-induced New Zealand white rabbits; assay: Mankin's scoring of joints; format: in vivo; details: after osteoarthritis induction, scale 0 to 14; control group 12.5
Description: In histological tests, degenerative changes, such as structural changes of cartilage, cell number changes in cartilage and surface staining distribution by cartilage staining with a dye, were evaluated according to a standard scoring system for the progress of osteoarthritis, Mankin's scoring (Mankin, H. J. et al., Orthopedic Clinics of North America, 2:19-30 (1971)). In the present invention, blind tests were performed by two inspectors according to the Mankin's criteria.
To prepare an osteoarthritis animal model, New Zealand white rabbits underwent anterior cruciate ligament transection (ACLT) in joints of their two hind legs. After three days, the rabbits were forced to sustain movement for four weeks in a space of 5×5 m^3 to induce substantial osteoarthritis. […]
30-mm synovial tissues were sectioned from the medial parapatella synovium of knee joints of experimental animals, fixed with 10% […] (F0507, Sigma) for over 24 hrs, and embedded in paraffin to make 4-mm paraffin blocks. […] Mankin's scoring was performed by blind tests carried out by two inspectors, and Mankin scores were determined according to the degree of degenerative progress and ranged from 0 (normal in all items) to a maximum score of 14, thus calculating a degenerative change index.

COX-2 = assay: Western blotting of COX-2 expression in LPS-treated RAW 264.7; format: cell-based, mice; details: LPS treatment = 100%, upon apigenin treatment
Description: A macrophage cell line derived from mice, RAW 264.7 (KCLB 40071), was purchased from the Korean Cell Line Bank. RAW 264.7 cells were seeded in a density of 3×10^6 cells onto 60-mm culture dishes containing DMEM (Dulbecco's Modified Eagle Medium, 12800-017, Gibco) supplemented with 10% FBS (fetal bovine serum, 26140-079, Gibco), 100 U/ml of penicillin and 100 μg/ml streptomycin (15140-122, Gibco), and cultured at 37° C. under 5% CO2 and humidity for 24 hrs. To induce NO production, RAW 264.7 cells were treated with 500 ng/ml of an E. coli cell wall component, lipopolysaccharide (LPS, L2654, Sigma). […] Herein, LPS was dissolved in distilled water, and apigenin was dissolved in DMSO. Then, the culture medium and a Griess reagent were mixed at a ratio of 1:1 (100 μl: 100 μl) and allowed to stand at room temperature for 10 min. Thereafter, absorbance was measured at 540 nm using a spectrophotometer (Power Wave X340, Bio-Tek).
RAW 264.7 cells were treated under the same conditions as in Example 12. […] Herein, for IκBα expression, the cells were treated with LSP for only two hours. […] After protein concentrations in cell lysates were measured, […] protein samples were separated on an 8-16% SDS (sodium dodecyl sulfate) polyacrylamide gel (EC60452, NOVEX). […]

[4] = non-treated left leg (−) of apigenin treatment group, four weeks after drug injection
[5] = non-treated left leg (−) of apigenin treatment group, two weeks after drug injection

Q: Which “concentration at which apigenin acts effectively (anticancer activity)” value (cancer cells) does the source give for O=c1cc(-c2ccc(O)cc2)oc2cc(O)cc(O)c12 [apigenin, 4′,5,7-trihydroxyflavone] here?
A: lower than 50 μM

Q: And the “Total protein levels in joint synovial fluids” value (“Total protein levels” for short) ([1]; apigenin-treated right leg (+), four weeks after drug injection)?
A: about 24.91 mg/ml

Q: And the “Total protein levels” value ([1]; apigenin-treated right leg (+), four weeks after drug injection, listed as Apigenin)?
A: 24.91 ± 0.35 mg/mL

Q: And the “Total protein levels” value ([1]; apigenin-treated right leg (+), two weeks after drug injection)?
A: 16.64 ± 0.3 mg/mL

Q: What about the “Total protein levels” value [1, 4] of the same compound?
A: 36.37 ± 0. mg/ml

Q: And the “Total protein levels” value [1, 5]?
A: 20.36 ± 0.69 mg/mL

Q: What about the “Total synovial fluid volume” value ([2]; apigenin-treated right leg (+), 50 μg once per week, four weeks after drug injection) of the same compound?
A: about 1.16 ml

Q: And the “Total synovial fluid volume” value ([2]; apigenin-treated right leg (+), 50 μg once per week, four weeks after drug injection, listed as Apigenin)?
A: 1.16 ± 0.03 mL

Q: What about the “Total synovial fluid volume” value ([2]; apigenin-treated right leg (+), 50 μg once per week, two weeks after drug injection) of the same compound?
A: 1.13 ± 0.08 mL

Q: And the “Total synovial fluid volume” value [2, 4]?
A: about 1.58 ml

Q: What about the “Total synovial fluid volume” value ([2]; non-treated left leg (−) of apigenin treatment group, four weeks after drug injection, listed as Apigenin) of the same compound?
A: 1.58 ± 0.24 mL

Q: And the “Total synovial fluid volume” value [2, 5]?
A: 1.17 ± 0.08 mL

Q: What about the “Mankin score (mean)” value [3] of the same compound?
A: 6.6

Q: And the COX-2 expression level (COX-2)?
A: 0%
